EC50 data for seven compounds are collected here from patent US7754722B2, “Piperazine derivatives and methods of use” (Merck Serono SA, priority 2002, dated 2010).

SMILES strings stand for the structures.

For this assay, the target named is T1, FSH receptor (Homo sapiens, UniProt P23945).
T1 construct: expressed in transfected cells; host or cells: CHO (Chinese Hamster Ovary) cells, stably transfected, carrying a cAMP response element-luciferase reporter
T1 sequence (P23945 18-695): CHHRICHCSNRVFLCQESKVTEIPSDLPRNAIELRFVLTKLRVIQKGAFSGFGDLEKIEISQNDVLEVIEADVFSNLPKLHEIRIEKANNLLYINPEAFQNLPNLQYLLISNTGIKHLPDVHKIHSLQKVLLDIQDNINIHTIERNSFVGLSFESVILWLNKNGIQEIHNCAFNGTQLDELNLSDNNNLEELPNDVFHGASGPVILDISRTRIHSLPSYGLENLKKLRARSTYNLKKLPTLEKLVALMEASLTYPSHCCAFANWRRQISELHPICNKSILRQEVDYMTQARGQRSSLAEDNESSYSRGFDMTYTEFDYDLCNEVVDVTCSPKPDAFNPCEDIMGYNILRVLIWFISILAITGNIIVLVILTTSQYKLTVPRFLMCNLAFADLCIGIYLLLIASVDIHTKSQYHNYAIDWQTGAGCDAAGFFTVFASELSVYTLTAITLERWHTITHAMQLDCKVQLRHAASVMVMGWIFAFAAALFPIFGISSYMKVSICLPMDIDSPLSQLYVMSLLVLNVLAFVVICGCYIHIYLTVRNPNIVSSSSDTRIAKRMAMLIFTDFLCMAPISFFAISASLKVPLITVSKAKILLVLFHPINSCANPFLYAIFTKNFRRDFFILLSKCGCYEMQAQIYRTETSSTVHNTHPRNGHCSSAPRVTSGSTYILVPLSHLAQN
Kind of assay: FSH assay: cAMP response element luciferase reporter in CHO cells expressing recombinant FSH receptor. The assay is classed as cell-based. To be noted: agonist activity; CHO cells stably transfected with recombinant FSH receptor; luciferase luminescence; log-dose-response curves; incubation 37° C. for 3 hrs 30 min; read-out: ED50 (the source's name). As to the method: Compounds of the invention were tested in the following assay.
All compounds of the invention were stored in 96-well deepwell plates in DMSO at a nominal concentration of 10 μM. Compounds of the invention were screened for agonist activity at the FSH receptor using the recombinant FSH receptor stably transfected and expressed in Chinese Hamster Ovary Cells (CHO cells) essentially as described in the work by Kelton, et al. Molecular and Cellular Endocrinology, 1992, 89, 141-151). […] Thus an agonist at the FSH receptor increases cAMP in the cell which results in activation of the CREB (cAMP) response element binding protein). The substrate for the enzyme (Packard Instrument Company 800 Research Parkway, Meriden, Conn. 06450, USA) was added to the cells after appropriate incubation with the compounds or FSH and the amount of luciferase expressed was measured by quantitating the luminescence produced by the enzyme using a TopCount scintillation/luminescence counter running in single photon counting mode. A compound which acts as an agonist at the receptor should produce light from the treated cells in proportion to its concentration within the incubation. Luminescence should be saturable at high concentrations of the compound.
The compounds of the invention, in deepwell plates (Master plates) as indicated above were loaded on the robotic deck along with the appropriate number of assay plates and daughter plates. A 10 μl aliquot from each master plate was transferred to the corresponding daughter plate and 90 μl of DME/F12 was added and mixed within each well. 20 μl was then removed from the daughter plate and dispensed into the assay plate. After addition of an aliquot of FSH (equivalent to an EC100 response for this hormone to each of three wells on the plate, 80 μl of media (DME/F 12±2% serum) and 100 μl aliquot of cells (4×10^5/ml in the same media) were added and the plate incubated at 37° C. for 3 hrs 30 min. At this time the plate was removed from the incubator and media in each well was aspirated and the cells adhering to the bottom of the plate washed with 300 μl PBS containing 1 mM Ca^2+ and 1 mM Mg^2+. The PBS was aspirated and 100 μl PBS added to each well. 100 μl of Lucite (prepared as described by the manufacturer) was added to each well and the plate was shaken gently for 40 seconds prior to placement in the TopCount plate reader. After allowing 3.5 minutes for the plate to dark-adapt within the machine, the amount of luminescence generated was quantitated using Single Photon Counting mode. The data was transmitted electronically from the TopCount to the robot processing computer terminal and was renamed with an ID corresponding to the original master plate ID. […] LDR (log-dose-response) curves were generated for these compounds in CHO cells containing the FSH receptor and these curves were also compared with those in either cells expressing a different Gs linked receptor or in cells lacking any transfected receptor.
Consider `CCCCCCN1CCN(S(=O)(=O)c2cccs2)[C@H](C(=O)Nc2ccc3[nH]c4c(c3c2)CCNC4=O)C1` [4-hexyl-1-(thiophene-2-sulfonyl)-piperazine-2-carboxylic acid (1-oxo-2,3,4,9-tetrahydro-1H-beta-carbolin-6-yl)-amide], for which the EC50 worked out at 978 nM.

Consider `CCCCCCN1CCN(S(=O)(=O)c2cccs2)[C@H](C(=O)Nc2ccc3c(c2)c2ccccc2n3CC)C1` [4-hexyl-1-(thiophene-2-sulfonyl)-piperazine-2-carboxylic acid (9-ethyl-9H-carbazol-3-yl) amide], for which the EC50 worked out at 380 nM.

On to `CCCCCCCCN1CCN(S(=O)(=O)c2cccs2)[C@H](C(=O)Nc2ccc3c(c2)nc(-c2ccncc2)n3CC)C1` [4-octyl-1-(thiophene-2-sulfonyl)-piperazine-2-carboxylic acid (1-ethyl-2-pyridin-4-yl-1H-benzoimidazol-5-yl)amide], for which the EC50 came to 54 nM.

Turning to `CCCCC(=O)N1CCN(S(=O)(=O)c2cccs2)[C@H](C(=O)Nc2ccc3c(c2)c2ccccc2n3CC)C1` [4-pentanoyl-1-(thiophene-2-sulfonyl)-piperazine-2-carboxylic acid (9-ethyl-9H-carbazol-3-yl) amide], the EC50 was found to be 402 nM.

Consider `CCCCCN1CCN(S(=O)(=O)c2cccs2)C(C(=O)Nc2ccc3[nH]c4c(c3c2)CCNC4=O)C1` (stereo not drawn) [4-pentyl-1-(thiophene-2-sulfonyl)-piperazine-2-carboxylic acid (1-oxo-2,3,4,9-tetrahydro-1H-beta-carbolin-6-yl)amide], for which the EC50 stood at 220 nM.

Take `CCCCCN1CCN(S(=O)(=O)c2cccs2)[C@H](C(=O)Nc2ccc3c(c2)nc(-c2cccnc2)n3CC)C1` [4-pentyl-1-thiophene-2-sulfonyl)-piperazine-2-carboxylic acid (1-ethyl-2-pyridin-3-yl-1H-benzoimidazol-5-yl)amide]: the EC50 turned out to be 150 nM.

As for `CCOC(=O)CNC(=O)N1CCN(S(=O)(=O)c2cccs2)[C@H](C(=O)Nc2ccc3c(c2)c2ccccc2n3CC)C1` [{[3-(9-ethyl-9H-carbazol-3-ylcarbamoyl)-4-(thiophene-2-sulfonyl)-piperazine-1-carbonyl]-amino}acetic acid ethyl ester], the EC50 worked out at 408 nM.
